Assay results published in patent US6746623B2, “Alkyl glycidyl ether-capped diamine foam controlling agent” (Air Products and Chemicals, Inc., priority 2002, dated 2004).
Marks after values point to notes of the source that are not given here.

What was measured:
[1] = Dynamic surface tension of aqueous solutions, maximum bubble pressure method; assay type: physicochemical; details: for γ at 0.1 wt %, 0.1 b/s / γ at 0.1 wt %, 1 b/s / γ at 0.1 wt %, 6 b/s / γ at 0.1 wt %, 20 b/s: 0.1 wt % in distilled water
From the text: Dynamic surface tension data were obtained for the soluble portion of these samples using the maximum bubble pressure method at bubble rates from 0.1 bubbles/sec (b/s) to 20 b/s.
The relative efficiency of surface tension reduction can be obtained by comparing surface tension reduction of solutions containing the same amount of different surfactants. Such data are given for 0.1 wt % solutions of the foam control agents at 0.1, 1, 6 and 20 bubbles/second (b/s). The limiting surface tensions at 0.1, 1, 6 and 20 b/s represent the lowest surface tensions in water which can be achieved at the given surface creation rates for a given surfactant regardless of the amount of surfactant used and is used to evaluate the effectiveness of a surfactant. In most cases the limiting surface tension was taken at 1.0 wt % since the foam control agent was insoluble at this concentration. In the case where the foam control agent was soluble at 1.0 wt %, the limiting surface tension was taken at 5.0 wt % (where the samples were insoluble). These values give information about the relative ability to a surfactant to reduce surface defects under near-equilibrium conditions (0.1 b/s) through very dynamic conditions (20 b/s).

[2] = Foam test of DOSS solutions with added foam control agent (based on ASTM D 1173-53); assay type: physicochemical; details: for Foam height after 1 min / Foam height after 10 min / Initial foam height: 0.1 wt % foam control agent added to 0.1 wt % DOSS in water; for Initial foam height: ambient temperature
From the text: Dioctyl sodium sulfosuccinate (DOSS) is a commonly used surfactant in waterborne compositions. DOSS is capable of forming stable foams when dissolved in water. The foam control characteristics of various foam control agents may be assessed by measuring the foam generated by a 0.1 wt % aqueous solution of DOSS and comparing this to the foam generated after the addition of foam control agent to a 0.1 wt % DOSS solution. The DOSS utilized in these measurements was an Aerosol OT 75% surfactant obtained from Cytec Industries. The foaming and foam stability of DOSS were measured using a procedure based upon ASTM D 1173-53 at ambient temperature, typically 23° C.
In these tests, an aqueous solution of DOSS or the filtrate from the DOSS/foam control agent mixture is added from an elevated foam pipette to a foam receiver containing the same solution. The foam height is measured at the completion of the addition (“Initial Foam Height”) and the time required for the foam to dissipate at the air-liquid interface (“Time to 0 Foam”) is recorded. This test provides a comparison between the foaming characteristics of various aqueous compositions. The results for the foam control agents prepared in Examples 1-28 are reported in Table 1 along with comparative data for a 0.1 wt % solution of DOSS with no added foam control agent (Example 29).

[3] = saturated solution made using 1.0 wt % in water
[4] = saturated solution made using 5.0 wt % in water

Row | SMILES | γ at 0.1 wt %, 0.1 b/s [1] [dyne/cm] | γ at 0.1 wt %, 1 b/s [1] [dyne/cm] | γ at 0.1 wt %, 6 b/s [1] [dyne/cm] | γ at 0.1 wt %, 20 b/s [1] [dyne/cm] | γ limiting, 0.1 b/s [1, 3] [dyne/cm] | γ limiting, 1 b/s [1, 3] [dyne/cm] | γ limiting, 6 b/s [1, 3] [dyne/cm] | γ limiting, 20 b/s [1, 3] [dyne/cm] | γ limiting, 0.1 b/s [1, 4] [dyne/cm] | γ limiting, 1 b/s [1, 4] [dyne/cm] | γ limiting, 6 b/s [1, 4] [dyne/cm] | γ limiting, 20 b/s [1, 4] | Foam height after 1 min [2] [cm] | Foam height after 10 min [2] [cm] | Initial foam height [2] [cm] | Effect on foaming of DOSS solution (in words) ([2]; added to the 0.1 wt % aqueous DOSS solution)
1 | CCCCOCC(O)CNC1CCC(CC2CCC(N)CC2)CC1 (mixture of isomers) [PACM/1 BGE] | 44.7 | 47.0 | 50.3 | 55.2 | 43.5 | 44.5 | 46.2 | 48.7 |  |  |  |  | 0 | 0 | 2.3 | 
2 | CCCCOCC(O)CNCCN (racemic) [EDA/1 BGE] | 46.1 | 49.4 | 53.4 | 59.9 | 36.7 | 37.2 | 38.1 | 39.8 |  |  |  |  | 2.0 | 1.4 | 3.5 | increase in foaming
3 | CCCCOCC(O)CNCCCCCCN (racemic) [HDA/1 BGE] | 42.3 | 44.8 | 47.9 | 52.6 | 39.3 | 40.1 | 41.1 | 42.9 |  |  |  |  | 0.4 | 0 | 1.4 | 
4 | CCCCOCC(O)CNCCN(CC(O)COCCCC)CC(O)COCCCC (stereo not drawn) [EDA/3 BGE] | 37.6 | 39.6 | 43.2 | 51.3 | 34.9 | 35.6 | 36.5 | 38.3 |  |  |  |  | 1.4 | 1.2 | 2.0 | 
5 | CCCCOCC(O)CN(CCN(CC(O)COCCCC)CC(O)COCCCC)CC(O)COCCCC (stereo not drawn) [EDA/4 BGE] | 36.7 | 38.9 | 44.4 | 58.4 | 35.9 | 37.0 | 39.2 | 43.0 |  |  |  |  | 1.3 | 1.2 | 1.9 | 
6 | CC(C)COCC(O)CN(CCN(CC(O)COCC(C)C)CC(O)COCC(C)C)CC(O)COCC(C)C (stereo not drawn) [EDA/4 IBGE] | 37.6 | 41.7 | 51.4 | 65.5 | 34.8 | 36.7 | 40.3 | 49.4 |  |  |  |  | 1.5 | 1.2 | 2.0 | 
7 | CCCCOCC(O)CNCCCCCCN(CC(O)COCCCC)CC(O)COCCCC (stereo not drawn) [HDA/3 BGE] | 40.3 | 43.1 | 47.5 | 55.4 | 37.9 | 39.1 | 40.7 | 44.4 |  |  |  |  | 0 | 0 | 1.2 | 
8 | CCCCOCC(O)CN(CCCCCCN(CC(O)COCCCC)CC(O)COCCCC)CC(O)COCCCC (stereo not drawn) [HDA/4 BGE] | 42.9 | 55.9 | 67.6 | 70.8 | 37.3 | 39.0 | 40.8 | 41.9 |  |  |  |  | 1.3 | 1.2 | 1.5 | 

Now from value to compound, other results behind:

Row | γ at 0.1 wt %, 0.1 b/s [1] [dyne/cm] | γ at 0.1 wt %, 1 b/s [1] [dyne/cm] | γ at 0.1 wt %, 6 b/s [1] [dyne/cm] | γ at 0.1 wt %, 20 b/s [1] [dyne/cm] | γ limiting, 0.1 b/s [1, 3] [dyne/cm] | γ limiting, 1 b/s [1, 3] [dyne/cm] | γ limiting, 6 b/s [1, 3] [dyne/cm] | γ limiting, 20 b/s [1, 3] [dyne/cm] | γ limiting, 0.1 b/s [1, 4] [dyne/cm] | γ limiting, 1 b/s [1, 4] [dyne/cm] | γ limiting, 6 b/s [1, 4] [dyne/cm] | γ limiting, 20 b/s [1, 4] | SMILES | Foam height after 1 min [2] [cm] | Foam height after 10 min [2] [cm] | Initial foam height [2] [cm] | Effect on foaming of DOSS solution (in words) ([2]; added to the 0.1 wt % aqueous DOSS solution)
9 | 28.6 | 37.3 | 54.7 | 63.3 | 27.4 | 28.3 | 30.6 | 32.5 |  |  |  |  | CCCCC(CC)COCC(O)CNCCN (mixture of isomers) [EDA/1 EHGE] | 0.2 | 0 | 1.5 | 
10 | 47.9 | 51.9 | 53.8 | 59.6 |  |  |  |  | 29.7 | 30.1 | 30.5 | 31.7^b dyne/cm | CC(C)COCC(O)CNCCN (racemic) [EDA/1 IBGE] | 1.0 | 0.3 | 1.5 | 
11 | 50.3 | 54.1 | 56.7 | 61.0 | 36.4 | 40.3 | 42.9 | 45.7 |  |  |  |  | CCCCOCC(O)CNCCCOCCOCCOCCCN (stereo not drawn) [DAPDEG/1 BGE] | 0.8 | 0.2 | 1.7 | 
12 | 38.0 | 39.4 | 42.1 | 47.6 | 33.5 | 38.7 | 34.3 | 36.1 |  |  |  |  | CCCCOCC(O)CNCCCOCCOCCOCCCN(CC(O)COCCCC)CC(O)COCCCC (stereo not drawn) [DAPDEG/3 BGE] | 0.9 | 0.1 | 1.9 | 
13 | 37.4 | 38.9 | 42.0 | 50.7 | 34.2 | 34.5 | 35.5 | 39.1 |  |  |  |  | CCCCOCC(O)CN(CCCOCCOCCOCCCN(CC(O)COCCCC)CC(O)COCCCC)CC(O)COCCCC (stereo not drawn) [DAPDEG/4 BGE] | 1.2 | 0.2 | 2.3 | 
14 | 45.3 | 58.7 | 70.5 | 70.9 | 33.5 | 36.0 | 47.1 | 48.7 |  |  |  |  | CCCCC(CC)COCC(O)CNCCN(CC(O)COCC(CC)CCCC)CC(O)COCC(CC)CCCC (stereo not drawn) [EDA/3 EHGE] | 1.5 | 1.2 | 2.1 | 
15 | 38.9 | 42.5 | 44.1 | 50.3 | 33.3 | 34.3 | 35.0 | 35.6 |  |  |  |  | CC(C)COCC(O)CNCCN(CC(O)COCC(C)C)CC(O)COCC(C)C (stereo not drawn) [EDA/3 IBGE] | 0.8 | 0.7 | 0.9 | 
16 | 60.7 | 67.9 | 71.0 | 71.7 | 44.4 | 50.6 | 51.0 | 52.1 |  |  |  |  | CCCCC(CC)COCC(O)CN(CCN(CC(O)COCC(CC)CCCC)CC(O)COCC(CC)CCCC)CC(O)COCC(CC)CCCC (stereo not drawn) [EDA/4 EHGE] | 2.5 | 2.1 | 3.0 | 
